Measurements: patent US20050191348A1 (priority 2004, published 2005)

Legend:
rat brain MAO-A = target: T1, rat brain MAO-A (Rattus norvegicus, UniProt P21396); experiment: In vitro inhibition of rat brain MAO-A; assay type: biochemical; settings: rat brain homogenate, 60 min preincubation at 37° C., 14C-5-hydroxytryptamine
T1 construct: from tissue; host or cells: rat brain homogenate
T1 sequence (P21396 1-526): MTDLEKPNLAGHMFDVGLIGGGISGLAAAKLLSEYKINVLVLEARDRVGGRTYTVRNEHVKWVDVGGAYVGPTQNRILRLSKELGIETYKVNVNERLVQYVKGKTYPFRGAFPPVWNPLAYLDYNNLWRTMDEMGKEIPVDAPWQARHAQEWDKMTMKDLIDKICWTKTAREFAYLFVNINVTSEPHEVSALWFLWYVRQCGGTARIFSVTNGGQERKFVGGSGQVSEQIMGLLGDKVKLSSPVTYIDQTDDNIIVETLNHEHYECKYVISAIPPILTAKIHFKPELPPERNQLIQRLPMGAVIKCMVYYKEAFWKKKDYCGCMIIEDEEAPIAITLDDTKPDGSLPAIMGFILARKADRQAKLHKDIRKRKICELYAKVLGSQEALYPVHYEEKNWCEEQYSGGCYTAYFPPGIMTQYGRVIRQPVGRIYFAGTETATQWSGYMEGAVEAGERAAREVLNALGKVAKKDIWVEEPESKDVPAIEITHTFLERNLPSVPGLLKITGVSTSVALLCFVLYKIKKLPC
Protocol: (§1) To determine the activity of MAO-A and MAO-B, the test compound is added to a suitable dilution of the enzyme preparation from rat brain (70 μg protein for MAO-B and 150 μg MAO-A assay) in 0.05 M phosphate buffer (pH 7.4). Tthe mixture is incubated together with […], a specific inhibitor of MAO-B (for determination of MAO-A) or with […], a specific inhibitor of MAO-A (for determination of MAO-B). Incubation is carried for 1 h at 37° C. before addition of ^14C-5-hydroxytryptamine binoxalate ([…]), for determination of MAO-A, or ^14C-phenylethylamine ([…]), for determination of MAO-B, and incubation is continued for 30 min or 20 min, respectively. The reaction is stopped with 2 M ice-cold citric acid, and the metabolites are extracted and determined by liquid-scintillation counting in cpm units.
Thus, in one experiment, the in vitro inhibitory activity of 5-(4-propargylpiperazin-1-ylmethyl)-8-hydroxy-quinoline (HLA20) and the 8-hydroxyquinoline derivative designated M32 (both iron chelators disclosed in the International Application PCT/IL03/00932), and propargylamine (P) (0.1, 1, 10, 100 μM) were tested against rat brain MAO-A. The test compounds were added to buffer containing 0.05 μM deprenyl and were incubated with the tissue homogenate for 60 min at 37° C. before addition of ^14C-5-hydroxytryptamine. […]

rat brain MAO-B = target: T2, rat brain MAO-B (Rattus norvegicus, UniProt P19643); experiment: In vitro inhibition of rat brain MAO-B; assay type: biochemical
T2 construct: from tissue; host or cells: rat brain homogenate
T2 sequence (P19643 1-520): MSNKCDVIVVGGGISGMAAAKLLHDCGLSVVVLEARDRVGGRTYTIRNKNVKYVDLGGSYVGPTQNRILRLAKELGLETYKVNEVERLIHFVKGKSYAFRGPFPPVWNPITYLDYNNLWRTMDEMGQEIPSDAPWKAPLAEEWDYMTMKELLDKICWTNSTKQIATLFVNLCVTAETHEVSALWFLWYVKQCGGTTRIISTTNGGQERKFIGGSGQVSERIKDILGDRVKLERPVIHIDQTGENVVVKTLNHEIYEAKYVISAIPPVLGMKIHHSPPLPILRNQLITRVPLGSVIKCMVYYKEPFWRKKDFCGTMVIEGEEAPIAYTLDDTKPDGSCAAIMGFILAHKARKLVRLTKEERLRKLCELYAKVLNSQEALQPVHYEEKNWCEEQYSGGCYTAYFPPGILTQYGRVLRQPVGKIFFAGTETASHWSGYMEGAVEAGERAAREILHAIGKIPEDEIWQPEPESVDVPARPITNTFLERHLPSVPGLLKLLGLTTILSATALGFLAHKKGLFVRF
Protocol: as §1
In another experiment, the in vitro inhibitory activity of propargylamine (P) against rat brain MAO-B was tested. Propargylamine (0.1, 1, 10, 100 μM) was added to buffer containing 0.05 μM clorgylin and was incubated with the tissue homogenate for 60 minutes at 37° C. before addition of ^14C-5-phenylethylamine. MAO-BA activity in presence of the test compound was expressed as a percentage of that in control samples. Mean values shown±SEM.

caspase-3 = experiment: Caspase-3 cleavage in SH-SY5Y cells in serum free medium; assay type: cell-based, human; settings: 3 days serum free, then 48 h with 1, 10 μM
Protocol: FIGS. 3A-3D show the neuroprotective effects of propargylamine against serum deprivation. PC12 cells (3A) and SH-SY5Y neuroblastoma cells (3B) were incubated under serum deprivation and were untreated or treated with propargylamine (0.1, 1, 10 μM) for 24 hours. Cell death was detected by ELISA and the values are expressed as a percentage of the control. The results are the mean±SEM (n=3). *p<0.05 vs. control, untreated cells. (3C) Morphological characteristics visualized by phase-contrast microscope of PC12 cells maintained with full serum medium (a), or serum-free medium in the absence (b) or presence of propargylamine (1 μM) (c) or (10 μM) (d). The morphology was visualized by phase-contrast microscope. The results are representative photographic. Similar results were repeated 3 times. (3D) Effect of propargylamine on caspase-3 cleavage in SH-SY5Y neuroblastoma cells incubated 3 days in serum free medium, followed by 48 h incubation with or without propargylamine (1,10 μM).
(iv) Immunoblot Analyses. […] Protein content was determined using the Bradford method. […] Quantification of results was accomplished by measuring the optical density of the labeled bands from the autoradiograms by scanning laser densitometry using the computerized imaging program Bio-ID (Imager, Bio1D software; Vilber Lourmat, Marne La Vallee, France). […]

`C#CCN` [propargylamine] was tested, and the IC50 (rat brain MAO-A) was ~66 µM, the “MAO-B versus MAO-A selectivity” value (rat brain MAO-B; from IC50 values, rat brain) was “preferentially selective for MAO-B inhibition” and the IC50 (rat brain MAO-B; rat brain homogenate, 60 min preincubation at 37° C., 14C-phenylethylamine) was ~10 µM. The “activated caspase-3” value (caspase-3) was “decreased activated caspase-3”.
